Source: BigSolDB 2.1

O=[N+]([O-])c1cccc2ccccc12
solubility (mole fraction)
Conditions | 273.15 K | 278.15 K | 283.15 K | 288.15 K | 293.15 K | 298.15 K | 303.15 K | 308.15 K
in acetone | 0.145 | 0.181 | 0.232 | 0.277 | 0.344 | 0.426 | 0.508 | 0.603
in acetonitrile | 0.0535 | 0.0739 | 0.104 | 0.149 | 0.225 | 0.322 | 0.433 | 0.591
in cyclohexane | – | 0.00743 | 0.0104 | 0.0134 | 0.0177 | 0.0261 | 0.0382 | 0.0532
in dichloromethane | 0.241 | 0.283 | 0.328 | 0.384 | 0.434 | 0.5 | 0.554 | 0.637
in ethanol | 0.00915 | 0.0111 | 0.0138 | 0.0173 | 0.0218 | 0.0281 | 0.0366 | 0.0467
in ethyl acetate | 0.143 | 0.172 | 0.213 | 0.254 | 0.31 | 0.382 | 0.472 | 0.566
in isobutanol | 0.00604 | 0.00768 | 0.00962 | 0.0123 | 0.0163 | 0.0219 | 0.0306 | 0.0424
in isopropanol | 0.00588 | 0.00782 | 0.00957 | 0.0123 | 0.0163 | 0.022 | 0.0301 | 0.0423
in methanol | 0.00637 | 0.00811 | 0.00991 | 0.0124 | 0.0155 | 0.0204 | 0.027 | 0.0353
in methyl acetate | 0.135 | 0.172 | 0.21 | 0.26 | 0.32 | 0.406 | 0.487 | 0.59
in n-butanol | 0.0111 | 0.0138 | 0.0169 | 0.0214 | 0.0274 | 0.0359 | 0.0493 | 0.0679
in n-propanol | 0.0094 | 0.0118 | 0.0143 | 0.0176 | 0.0228 | 0.03 | 0.0409 | 0.058
